# Measurements from patent publication US4792545A, “Boholmycin antibiotic” (Bristol-Myers Company, priority 1986, dated 1988).
# Read-outs that look alike come from different tables or passages of the source.
# Tests used:
# S. aureus 209P = assay: MIC by serial agar dilution; assay type: cell-based
# S. aureus Smith [1] = assay: MIC by serial agar dilution; assay type: cell-based
# S. aureus A20239 = assay: MIC by serial agar dilution; assay type: cell-based
# M. luteus PCI-1001 = assay: MIC by serial agar dilution; assay type: cell-based
# M. flavus D-12 = assay: MIC by serial agar dilution; assay type: cell-based
# B. subtilis ATCC6633 = assay: MIC by serial agar dilution; assay type: cell-based; conditions: medium A: Nutrient agar
# B. anthracis IID-115 = assay: microbe, parasite or virus in culture; assay type: cell-based
# E. coli NIHJ = assay: MIC by serial agar dilution; assay type: cell-based; conditions: medium A: Nutrient agar
# E. coli Juhl [2] = assay: MIC by serial agar dilution; assay type: cell-based; conditions: medium A: Nutrient agar
# E. coli K-12 = assay: MIC by serial agar dilution; assay type: cell-based
# E. coli A20664 = assay: MIC by serial agar dilution; assay type: cell-based; conditions: E. coli A20664, kanamycin resistant strain, medium A: Nutrient agar
# E. coli JR35/c600 = assay: MIC by serial agar dilution; assay type: cell-based
# K. pneumoniae D-11 [3] = assay: MIC by serial agar dilution; assay type: cell-based
# K. pneumoniae A9678 = assay: MIC by serial agar dilution; assay type: cell-based; conditions: medium A: Nutrient agar
# E. cloacae A20364 = assay: MIC by serial agar dilution; assay type: cell-based; conditions: E. cloacae A20364, kanamycin resistant strain, medium A: Nutrient agar
# E. cloacae A21006 = assay: MIC by serial agar dilution; assay type: cell-based; conditions: E. cloacae A21006, kanamycin resistant strain, medium A: Nutrient agar
# P. mirabilis A9554 = assay: MIC by serial agar dilution; assay type: cell-based; conditions: medium A: Nutrient agar
# P. vulgaris A9436 = assay: MIC by serial agar dilution; assay type: cell-based; conditions: medium A: Nutrient agar
# S. marcescens A20019 = assay: MIC by serial agar dilution; assay type: cell-based
# S. marcescens A22302 = assay: MIC by serial agar dilution; assay type: cell-based
# P. aeruginosa A9930 = assay: MIC by serial agar dilution; assay type: cell-based; conditions: medium A: Nutrient agar
# P. aeruginosa A9843A = assay: microbe, parasite or virus in culture; assay type: cell-based
# P. aeruginosa A20601 = assay: MIC by serial agar dilution; assay type: cell-based; conditions: P. aeruginosa A20601, kanamycin resistant strain, medium A: Nutrient agar
# Mycobacterium 607 D87 = assay: MIC by serial agar dilution; assay type: cell-based
# Mycobacterium 607 D46 = assay: MIC by serial agar dilution; assay type: cell-based; conditions: Mycobacterium 607 D46, kanamycin resistant strain, medium B: No. 1001 medium
# Mycobacterium phlei = assay: MIC by serial agar dilution; assay type: cell-based
# Mycobacterium ranae = assay: MIC by serial agar dilution; assay type: cell-based
# S. aureus Smith [4] = assay: in vivo efficacy in mice against experimental infection
# E. coli Juhl [5] = assay: as above
# K. pneumoniae D-11 [6] = assay: as above
# [7] = system: experimental infections produced by S. aureus, E. coli and K. pneumoniae; assay: in vivo activity in mice, Table 5 overall; conditions: i.m.
# B. subtilis PCI-219 = assay: inhibiting growth of B. subtilis PCI-219 (paper disc); assay type: cell-based; conditions: Bacillus subtilis, PCI219, 18 h, read-out: Inhibition zone vs B. subtilis PCI-219
# Description: Boholmycin dihydrochloride tetrahydrate was tested in comparison with streptomycin, glebomycin, myomycin B and kanamycin in respect to stimulating growth of E. coli D64 and in respect to inhibiting growth of B. subtilis PCI-219. The results are shown in Table 4 wherein the term "boholmycin" is used for short in referring to boholmycin dihydrochloride tetrahydrate.
# *^1 8 mm paper disc containing 35 μl of test solution
# *^3 Incubation at 28° C. for 18 hours
# [8] = Escherichia coli, read-out: MIC
# [9] = Enterobacter cloacae, read-out: MIC
# [10] = Pseudomonas aeruginosa, read-out: MIC
structure (smiles),measurement,setting,value
CCC(=O)N[C@@H]1C(CO)O[C@H](O[C@@H]([C@H](N)[C@H](O)CO)[C@@H](O)CN)C(O)C1O (stereo partly drawn) [sorbistin A1],MIC,"S. aureus 209P; S. aureus 209P, medium A: Nutrient agar",50 µg/mL
same,MIC,"S. aureus Smith [1]; S. aureus Smith, medium A: Nutrient agar",50 µg/mL
same,MIC,"S. aureus A20239; S. aureus A20239, kanamycin resistant strain, medium A: Nutrient agar",100 µg/mL
same,MIC,"M. luteus PCI-1001; M. luteus PCI-1001, medium A: Nutrient agar",50 µg/mL
same,MIC,M. flavus D-12; medium A: Nutrient agar,12.5 µg/mL
same,MIC,B. subtilis ATCC6633,50 µg/mL
same,MIC,"B. anthracis IID-115; B. anthracis IID-115, medium A: Nutrient agar",50 µg/mL
same,MIC,E. coli NIHJ,25 µg/mL
same,MIC,E. coli Juhl [2],50 µg/mL
same,MIC,E. coli K-12; medium A: Nutrient agar,25 µg/mL
same,MIC,E. coli A20664,25 µg/mL
same,MIC,"E. coli JR35/c600; E. coli JR35/c600, kanamycin resistant strain, medium A: Nutrient agar",25 µg/mL
same,MIC,K. pneumoniae D-11 [3]; medium A: Nutrient agar,6.3 µg/mL
same,MIC,K. pneumoniae A9678,100 µg/mL
same,MIC,E. cloacae A20364,50 µg/mL
same,MIC,E. cloacae A21006,50 µg/mL
same,MIC,P. mirabilis A9554,50 µg/mL
same,MIC,P. vulgaris A9436,50 µg/mL
same,MIC,"S. marcescens A20019; S. marcescens A20019, medium A: Nutrient agar",> 200 µg/mL
same,MIC,"S. marcescens A22302; S. marcescens A22302, kanamycin resistant strain, medium A: Nutrient agar",400 µg/mL
same,MIC,P. aeruginosa A9930,12.5 µg/mL
same,MIC,"P. aeruginosa A9843A; P. aeruginosa A9843A, medium A: Nutrient agar",6.3 µg/mL
same,MIC,P. aeruginosa A20601,3.1 µg/mL
same,MIC,"Mycobacterium 607 D87; Mycobacterium 607 D87, medium B: No. 1001 medium",50 µg/mL
same,MIC,Mycobacterium 607 D46,100 µg/mL
same,MIC,"Mycobacterium phlei; Mycobacterium phlei, medium B: No. 1001 medium",25 µg/mL
same,MIC,"Mycobacterium ranae; Mycobacterium ranae, medium B: No. 1001 medium",50 µg/mL
same,PD50,"S. aureus Smith [4]; mice, i.m. just before challenge, S. aureus Smith, 5 days observation",50 mg/kg
same,PD50,"E. coli Juhl [5]; mice, i.m. just before challenge, E. coli Juhl, 5 days observation",100 mg/kg
same,PD50,"K. pneumoniae D-11 [6]; mice, i.m. just before challenge, K. pneumoniae D-11, 5 days observation",75 mg/kg
same,in vivo activity compared with streptomycin and kanamycin,[7],much less active than streptomycin and kanamycin
NC[C@H]1O[C@H](O[C@H]2[C@H](O)[C@@H](O[C@H]3O[C@H](CO)[C@@H](O)[C@H](N)[C@H]3O)[C@H](N)C[C@@H]2N)[C@H](O)[C@@H](O)[C@@H]1O [kanamycin],MIC,"S. aureus 209P; Staphylococcus aureus, 209P",0.8 µg/mL
same,MIC,S. aureus Smith [1]; Staphylococcus aureus,0.4 µg/mL
same,MIC,"S. aureus A20239; Staphylococcus aureus, A20239",> 100 µg/mL
same,MIC,"M. luteus PCI-1001; Micrococcus luteus, PCI1001",6.3 µg/mL
same,MIC,"M. flavus D-12; Micrococcus flavus, D12, medium A: Nutrient agar, read-out: MIC",1.6 µg/mL
same,MIC,"B. subtilis ATCC6633; Bacillus subtilis, read-out: MIC",0.2 µg/mL
same,MIC,"B. anthracis IID-115; Bacillus anthracis, IID115",0.4 µg/mL
same,MIC,E. coli NIHJ; [8],0.8 µg/mL
same,MIC,E. coli Juhl [2]; [8],1.6 µg/mL
same,MIC,"E. coli K-12; Escherichia coli, K12, medium A: Nutrient agar, read-out: MIC",0.8 µg/mL
same,MIC,E. coli A20664; [8],> 100 µg/mL
same,MIC,"E. coli JR35/c600; Escherichia coli, JR35/C600",> 100 µg/mL
same,MIC,"K. pneumoniae D-11 [3]; Klebsiella pneumoniae, D11, medium A: Nutrient agar, read-out: MIC",0.4 µg/mL
same,MIC,"K. pneumoniae A9678; Klebsiella pneumoniae, read-out: MIC",3.1 µg/mL
same,MIC,E. cloacae A20364; [9],> 100 µg/mL
same,MIC,E. cloacae A21006; [9],> 100 µg/mL
same,MIC,"P. mirabilis A9554; Proteus mirabilis, read-out: MIC",0.8 µg/mL
same,MIC,"P. vulgaris A9436; Proteus vulgaris, read-out: MIC",0.2 µg/mL
same,MIC,"S. marcescens A20019; Serratia marcescens, A20019",1.5 µg/mL
same,MIC,"S. marcescens A22302; Serratia marcescens, A22302",50 µg/mL
same,MIC,P. aeruginosa A9930; [10],12.5 µg/mL
same,MIC,"P. aeruginosa A9843A; Pseudomonas aeruginosa, A9843A",6.3 µg/mL
same,MIC,P. aeruginosa A20601; [10],> 100 µg/mL
same,MIC,"Mycobacterium 607 D87; Mycobacterium, 607D87",0.2 µg/mL
same,MIC,Mycobacterium 607 D46; read-out: MIC,> 100 µg/mL
same,MIC,Mycobacterium phlei; Mycolicibacterium phlei,0.4 µg/mL
same,MIC,Mycobacterium ranae; Mycobacterium,0.2 µg/mL
same,zone of inhibition at 100 µg/mL,B. subtilis PCI-219,30 mm
same,zone of inhibition at 400 µg/mL,B. subtilis PCI-219,34 mm
same,ED50,"S. aureus Smith [4]; Staphylococcus aureus, im, 120 h, read-out: PD50",1.1 mg/kg
same,ED50,"E. coli Juhl [5]; Escherichia coli, im, 120 h, read-out: PD50",3.5 mg/kg
same,ED50,"K. pneumoniae D-11 [6]; Klebsiella pneumoniae, D11, im, 120 h, read-out: PD50",1.1 mg/kg
